Laboratory results: patent US9480668B2, “Blood flow promoting agent” (KYOWA HAKKO BIO CO., LTD., priority 2012, dated 2016)

Tests used:
[1] = sublingual treatment, concentration-dependent; non-patent document 3; cited from earlier work
[2] = test system: thoracic aorta isolated from a rat; assay: Magnus method: vasodilatory potency on aortic ring, relaxation of Norepinephrine 0.3 μM-induced contraction; conditions: L-citrulline 1000 μM, single addition; vasoconstriction induced by 0.3 μM Norepinephrine

SMILES | concentration of capsaicin solution producing a feeling of strong pain [1] | vascular relaxation rate (%) [2]
COc1cc(CNC(=O)CCCCC=CC(C)C)ccc1O [capsaicin, 8-methyl-N-vanillyl-6-nonenamide] | not less than 75 μM | –
NC(=O)NCCC[C@H](N)C(=O)O [L-citrulline] | – | 15-20%
